Measurements reported in US20240376097A1, “BCL-2 Inhibitor” (BeiGene Ltd., priority 2020, published 2024).
Like-named read-outs stand apart in the source and are kept apart here.

How the values were obtained:
[1] = tested on: BCL-2 G101V knock-in cell line H96 (derive from RS4;11); assay: Bcl 2-G101V Knock-In RS4;11 Cell Proliferation Assay; type: cell-based; conditions: RS4;11 Bcl-2 G101V knock-in clone H96, 48 hrs, CellTiter-GLO, read-out: Cellular proliferation assay (IC50, nM) RS4
Method in brief: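 CellTiter-Glo luminescence after 48 h, 37 °C compound treatment (10 concentrations, maximum 1 μM or 10 μM) gave mean IC50 values. Cells were 50,000 per well of H96, a BCL2-G101V knock-in single clone derived from RS4;11 by Cas9 editing.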

[2] = molecular target: Recombinant human Bcl-2 protein (Homo sapiens (Human), UniProt P10415); assay: Bcl-2 TR-FRET Assay; type: binding
Method in brief: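 In pH 7.5 phosphate buffer containing NaCl, EDTA, Tween-20 and BSA, 0.05 nM Bcl-2 saw serially diluted compound for 0.5 h before 0.5 nM FITC-Bak peptide was added. Signal ratio at 520/490 nm after 1 h yielded IC50.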

[3] = tested on: RS4;11 (BCL-2 dependent acute lymphoblastic leukemia cell line); assay: RS4;11 Cell Proliferation Assay; type: cell-based; conditions: read-out: Cellular proliferation assay (IC50, nM) RS4
Method in brief: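 Viability measured via CellTiter-Glo luminescence after a 48 h, 37 °C exposure to compounds (10 points, highest 1 μM). Seeding was 50,000 RS4;11 cells per well in 10% FBS RPMI-1640; IC50 given as mean.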

[4] = molecular target: recombinant human Bcl-2 D103Y protein (Homo sapiens (Human), UniProt P10415, D103Y); assay: Bcl-2-D103Y Biochemical Assay (TR-FRET); type: binding; conditions: for IC50: TR-FRET, FITC labeled Bak peptide; for Ratio of Bcl-2 D103Y/Bcl-2 WT: ratio of IC50; for ratio of Bcl-2 D103Y/Bcl-2 wt, compared with F91b in WO2019210828: comparison in words
Method in brief: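 Compounds titrated against the Bcl-2 D103Y–ligand interaction; inhibition derived from the TR-FRET emission ratio 490 nm/520 nm after 337 nm excitation. Four-parameter logistic fitting gave IC50.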

[5] = molecular target: recombinant human Bcl-2-G101V protein (Homo sapiens (Human), UniProt P10415, G101V); assay: Bcl-2-G101V TR-FRET Assay; type: binding; conditions: Bcl-2 G101V mutant, TR-FRET; read-out: Biochemical assay (IC50, nM) Bcl-2 G101V
Method in brief: (§1)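 IC50 values derive from four-parameter logistic fitting of percent inhibition data. That inhibition of ligand binding to Bcl-2-G101V is computed from the 490 nm/520 nm TR-FRET ratio under 337 nm excitation, over a rising compound concentration series.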

[6] = tested on: recombinant human Bcl-2-G101V protein; assay: Bcl-2-G101V TR-FRET Assay; type: binding; conditions: for Ratio of Bcl-2 G101V/WT: ratio of biochemical IC50 Bcl-2 G101V / Bcl-2 WT; for ratio of IC50 of Bcl-2 G101V/Bcl-2 wt, compared with Example F132b in WO2019210828 and ABT-199 (venetoclax): comparison in words
Method in brief: as §1

[7] = Bcl-2 wild type, TR-FRET, read-out: Biochemical assay (IC50, nM) Bcl-2 WT
[8] = wild type Bcl-2, unit inferred, read-out: Bcl-2 WT
[9] = Homo sapiens, RS4-11, RS4;11 cells

| Compound | IC50 [1] | IC50 [2, 7] | IC50 [2, 8] | IC50 ([3]; RS4;11 cells) | IC50 [4] | Ratio of Bcl-2 D103Y/Bcl-2 WT [4] | IC50 [5] | Ratio of Bcl-2 G101V/WT [6] | IC50 ([1]; Homo sapiens) | ratio of Bcl-2 D103Y/Bcl-2 wt, compared with F91b in WO2019210828 [4] | ratio of IC50 of Bcl-2 G101V/Bcl-2 wt, compared with Example F132b in WO2019210828 and ABT-199 (venetoclax) [6] | IC50 [3, 9] |
| --- | --- | --- | --- | --- | --- | --- | --- | --- | --- | --- | --- | --- |
| 2-((1H-pyrrolo[2,3-b]pyridin-5-yl) oxy)-N-((4-((((1r,4r)-4-hydroxy-4- methylcyclohexyl)methyl)amino)- 3-nitrophenyl)sulfonyl)-4-(2-((R)- 2-(2-isopropylphenyl)-4-((7- methoxybenzofuran-5-yl)methyl) piperazin-1-yl)-7-azaspiro[3.5] nonan-7-yl)benzamide [Example 280] | 0.43 nM | 0.26 nM | 0.26 nM | 0.14 nM | 0.23 nM | 0.89 | 0.56 nM | 2.2 |  |  |  |  |
| CC(C)c1ccccc1C1CN(C(C)c2ccccc2)CCN1C1CC2(CCN(c3ccc(C(=O)NS(=O)(=O)c4ccc(NC[C@H]5CC[C@](C)(O)CC5)c([N+](=O)[O-])c4)c(Oc4cnc5[nH]ccc5c4)c3)CC2)C1 (single isomer, unassigned) [Example 24b, 2-((1H-pyrrolo[2,3-b]pyridin-5-yl)oxy)-N-((4-((((1r,4r)-4-hydroxy-4-methylcyclohexyl)methyl)amino)-3-nitrophenyl)sulfonyl)-4-(2-(2-(2-isopropylphenyl)-4-(1-phenylethyl)piperazin-1-yl)-7-azaspiro[3.5]nonan-7-yl)benzamide] |  | 0.24 nM | 0.24 nM | 0.75 nM | 0.56 nM | 2.3 | 1.1 nM | 4.6 | 6.49 nM | significantly lower | much lower |  |
| CC(C)c1ccccc1[C@@H]1CN(Cc2ccc(F)cc2)CCN1C1CC2(CCN(c3ccc(C(=O)NS(=O)(=O)c4ccc(NC[C@H]5CC[C@](C)(O)CC5)c([N+](=O)[O-])c4)c(Oc4cnc5[nH]ccc5c4)c3)CC2)C1 (single isomer, unassigned) [Example 28a, 2-((1H-pyrrolo[2,3-b]pyridin-5-yl)oxy)-4-(2-((R or S)-4-(4-fluorobenzyl)-2-(2-isopropylphenyl)piperazin-1-yl)-7-azaspiro[3.5]nonan-7-yl)-N-((4-((((1r,4r)-4-hydroxy-4-methylcyclohexyl)methyl)amino)-3-nitrophenyl)sulfonyl)benzamide] |  | 0.098 nM | 0.098 nM |  | 0.2 nM | 2.1 | 0.33 nM | 3.3 | 1.23 nM |  |  | 0.21 nM |
| CC(C)c1ccccc1[C@@H]1CN(Cc2ccc(Cl)cc2)CCN1C1CC2(CCN(c3ccc(C(=O)NS(=O)(=O)c4ccc(NC[C@H]5CC[C@](C)(O)CC5)c([N+](=O)[O-])c4)c(Oc4cnc5[nH]ccc5c4)c3)CC2)C1 (single isomer, unassigned) [Example 29a, 2-((1H-pyrrolo[2,3-b]pyridin-5-yl)oxy)-4-(2-((R or S)-4-(4-chlorobenzyl)-2-(2-isopropylphenyl)piperazin-1-yl)-7-azaspiro[3.5]nonan-7-yl)-N-((4-((((1r,4r)-4-hydroxy-4-methylcyclohexyl)methyl)amino)-3-nitrophenyl)sulfonyl)benzamide] |  | 0.2 nM | 0.2 nM |  | 0.38 nM | 1.9 | 0.72 nM | 3.5 | 1.42 nM |  |  | 0.22 nM |
| COc1ccc(CN2CCN(C3CC4(CCN(c5ccc(C(=O)NS(=O)(=O)c6ccc(NC[C@H]7CC[C@](C)(O)CC7)c([N+](=O)[O-])c6)c(Oc6cnc7[nH]ccc7c6)c5)CC4)C3)[C@H](c3ccccc3C(C)C)C2)c(OC)c1 (single isomer, unassigned) [Example 48a, 2-((1H-pyrrolo[2,3-b]pyridin-5-yl)oxy)-4-(2-((R or S)-4-(2,4-dimethoxybenzyl)-2-(2-isopropylphenyl)piperazin-1-yl)-7-azaspiro[3.5]nonan-7-yl)-N-((4-((((1r,4r)-4-hydroxy-4-methylcyclohexyl)methyl)amino)-3-nitrophenyl)sulfonyl)benzamide] |  | 0.045 nM | 0.045 nM |  | 0.1 nM | 2.3 | 0.21 nM | 4.6 | 0.81 nM |  |  | 0.16 nM |
| COc1ccc(CN2CCN(C3CC4(CCN(c5ccc(C(=O)NS(=O)(=O)c6ccc(NC[C@@H]7CN(C8COC8)CCO7)c([N+](=O)[O-])c6)c(Oc6cnc7[nH]ccc7c6)c5)CC4)C3)[C@@H](c3ccccc3C(C)C)C2)cc1 (single isomer, unassigned) [Example 84, 2-((1H-pyrrolo[2,3-b]pyridin-5-yl)oxy)-4-(2-((R or S)-2-(2-isopropylphenyl)-4-(4-methoxybenzyl)piperazin-1-yl)-7-azaspiro[3.5]nonan-7-yl)-N-((3-nitro-4-((((R)-4-(oxetan-3-yl)morpholin-2-yl)methyl)amino)phenyl)sulfonyl)benzamide] |  | 0.028 nM | 0.028 nM |  | 0.049 nM | 1.8 | 0.15 nM | 5.2 | 0.6 nM | significantly lower | much lower | 0.206 nM |
| CC(C)c1ccccc1C1CN(C2CCC2)CCN1C1CC2(CCN(c3ccc(C(=O)NS(=O)(=O)c4ccc(NC[C@H]5CC[C@](C)(O)CC5)c([N+](=O)[O-])c4)c(Oc4cnc5[nH]ccc5c4)c3)CC2)C1 (stereo partly drawn) [Example 5, 2-((1H-pyrrolo[2,3-b]pyridin-5-yl)oxy)-4-(2-(4-cyclobutyl-2-(2-isopropylphenyl)piperazin-1-yl)-7-azaspiro[3.5]nonan-7-yl)-N-((4-((((1r,4r)-4-hydroxy-4-methylcyclohexyl)methyl)amino)-3-nitrophenyl)sulfonyl)benzamide] |  | 0.037 nM | 0.037 nM |  | 0.32 nM | 12 | 0.45 nM | 12.2 | 5.33 nM |  |  | 0.58 nM |
| CC(C)c1ccccc1C1CN(C2COC2)CCN1C1CC2(CCN(c3ccc(C(=O)NS(=O)(=O)c4ccc(NC[C@H]5CC[C@](C)(O)CC5)c([N+](=O)[O-])c4)c(Oc4cnc5[nH]ccc5c4)c3)CC2)C1 (stereo partly drawn) [Example 6, 2-((1H-pyrrolo[2,3-b]pyridin-5-yl)oxy)-N-((4-((((1r,4r)-4-hydroxy-4-methylcyclohexyl)methyl)amino)-3-nitrophenyl)sulfonyl)-4-(2-(2-(2-isopropylphenyl)-4-(oxetan-3-yl)piperazin-1-yl)-7-azaspiro[3.5]nonan-7-yl)benzamide] |  | 0.013 nM | 0.013 nM |  | 0.18 nM | 24 | 0.32 nM | 24.6 | 4.83 nM |  |  | 0.53 nM |
| COc1ccc(CN2CCN(C3CC4(C3)CN(c3ccc(C(=O)NS(=O)(=O)c5ccc(NCC67CC8CC(C6)C(OC)C(C8)C7)c([N+](=O)[O-])c5)c(Oc5cnc6[nH]cc(F)c6c5)c3)C4)[C@H](c3ccccc3C(C)C)C2)cc1 (stereo partly drawn) [Example 356, 2-((3-fluoro-1H-pyrrolo[2,3-b]pyridin-5-yl)oxy)-4-(6-((R)-2-(2-isopropylphenyl)-4-(4-methoxybenzyl)piperazin-1-yl)-2-azaspiro[3.3]heptan-2-yl)-N-((4-((((1S,3R,7S)-4-methoxyadamantan-1-yl)methyl)amino)-3-nitrophenyl)sulfonyl) benzamide] |  | 1.5 nM |  |  |  |  | 4.2 nM | 2.9 | 1.7 nM |  |  | 0.31 nM |
| CC(C)c1ccccc1[C@@H]1CN(Cc2ccc(N3CCOCC3)cc2)CCN1C1CC2(C1)CN(c1ccc(C(=O)NS(=O)(=O)c3ccc(NC[C@H]4CC[C@](C)(O)CC4)c([N+](=O)[O-])c3)c(Oc3cnc4[nH]cc(F)c4c3)c1)C2 [Example 368] |  | 0.064 nM |  |  |  |  | 0.29 nM | 4.5 | 0.24 nM |  |  | 0.096 nM |
